How the values were obtained:
IDO [1] = target: T1, IDO (Homo sapiens, UniProt P14902); settings: J F Reinhard et al., 1996, read-out: IC50 (affinity to IDO); cited from earlier work
Target sequence in this assay (P14902 whole entry, species assumed): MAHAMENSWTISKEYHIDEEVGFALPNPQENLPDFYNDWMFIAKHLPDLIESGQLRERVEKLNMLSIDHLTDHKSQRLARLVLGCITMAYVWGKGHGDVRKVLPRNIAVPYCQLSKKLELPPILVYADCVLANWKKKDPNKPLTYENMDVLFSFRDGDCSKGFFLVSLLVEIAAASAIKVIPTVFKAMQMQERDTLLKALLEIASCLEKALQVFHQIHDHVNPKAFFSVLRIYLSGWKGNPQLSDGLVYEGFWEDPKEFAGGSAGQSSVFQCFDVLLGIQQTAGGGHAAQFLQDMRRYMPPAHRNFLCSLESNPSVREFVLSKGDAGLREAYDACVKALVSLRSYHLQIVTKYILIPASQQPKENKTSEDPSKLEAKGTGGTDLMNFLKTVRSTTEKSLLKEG

human TDO2 = target: T2, human TDO2 (Homo sapiens, UniProt P48775); assay: Tryptophan degradation and kynurenin production by 293-E cells transfected with human TDO2, HPLC of supernatant; assay type: cell-based; settings: 293-E hTDO cells, overnight, HBSS with 25 μM tryptophan, increasing inhibitor concentrations (FIG. 4)
T2 construct: expressed in transfected cells; host or cells: human 293-EBNA (293-E) cells
T2 sequence (P48775 whole entry): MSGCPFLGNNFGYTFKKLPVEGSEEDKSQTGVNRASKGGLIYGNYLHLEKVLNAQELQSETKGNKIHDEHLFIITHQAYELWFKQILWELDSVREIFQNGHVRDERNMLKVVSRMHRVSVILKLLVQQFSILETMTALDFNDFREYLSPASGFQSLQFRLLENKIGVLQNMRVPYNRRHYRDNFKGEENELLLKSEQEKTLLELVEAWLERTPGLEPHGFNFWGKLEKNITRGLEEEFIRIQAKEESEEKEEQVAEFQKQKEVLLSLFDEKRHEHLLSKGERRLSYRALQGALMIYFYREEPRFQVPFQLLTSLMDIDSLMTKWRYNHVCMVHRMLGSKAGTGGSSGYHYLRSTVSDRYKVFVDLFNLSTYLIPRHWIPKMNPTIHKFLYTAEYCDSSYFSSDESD

[2] = target: T3, TDO2 in Head and Neck carcinoma cell line 2720 (SENY) (Homo sapiens, UniProt P48775); assay: Tryptophan consumption and kynurenine production by Head and Neck carcinoma cell line 2720 (SENY), HPLC of supernatant; assay type: cell-based; settings: at 20 μM; SENY cells, overnight, HBSS with 50 μM tryptophan
T3 construct: To confirm the expression of enzymatically active TDO2, we used Head and Neck carcinoma cell line 2720 (SENY); endogenous in cells; host or cells: Head and Neck carcinoma cell line 2720 (SENY)
T3 sequence (P48775 whole entry): as above
Method: FIG. 5. A bar graph depicting tryptophan consumption and kynurenine production in head and neck carcinoma cell line 2720 (SENY) in the presence or absence of the TDO-specific inhibitor 680C91 or the IDO inhibitor mb.
To confirm the expression of enzymatically active TDO2, we used Head and Neck carcinoma cell line 2720 (SENY), which expresses 12.7 molecules of TDO2 mRNA/cell. We measured tryptophan consumption and kynurenine production in the supernatant of 5×10^5 cells incubated overnight in 2 ml of HBSS containing 50 μM tryptophan. Tryptophan and kynurenine concentrations were measured by HPLC using standard methods.
See FIG. 5 for results of this assay. To confirm that the tryptophan-degrading activity was due to TDO, TDO-specific inhibitor 680C91 was included at 5 μM or 20 μM. As control, an IDO inhibitor (mb) was also used at 5 μM or 20 μM. A tryptophan-degrading activity was detected and was clearly observed by looking at the production of kynurenine: 11 μM as compared to 0 in the control without cells. This activity was mostly attributable to TDO, as it was blocked by the TDO-specific inhibitor 680C91 (50% inhibition at 20 μM).

IDO [3] = target: T1, IDO; assay: Tryptophan degradation and kynurenin production by 293-E cells transfected with human IDO, HPLC of supernatant; assay type: cell-based; parameters: expressed in transfected cells; host or cells: human 293-EBNA (293-E) cells; settings: 293-E hIDO cells, overnight, HBSS with 25 μM tryptophan, increasing inhibitor concentrations (FIG. 4)
Method: FIG. 4. Line graphs depicting concentrations of tryptophan and kynurenine in culture supernatants of different transfected cells. Control human 293-EBNA cells (293-E) (FIG. 4A), 293-E cells transfected with human IDO (293-E hIDO) (FIG. 4B) or human 293-E cells transfected with human TDO2 (293-E hTDO) (FIG. 4C) were incubated overnight (4×10^5 cells/2000) in Hank's balanced Salt solution (HBSS) supplemented with 25 μM tryptophan and increasing concentrations of the 680C91 inhibitor compound ([inh]). The concentrations (μM) of tryptophan ([Trp], ⋄) and kynurenin ([Kyn], □) were measured by HPLC in the supernatant.
A TDO inhibitor, 680C91, was described in Salter, M., R. Hazelwood, C. I. Pogson, R. Iyer, and D. J. Madge. 1995. Biochem. Pharmacol. 49:1435-1442. We synthesized this compound and tested its capacity to block tryptophan degradation by human 293 cells transfected with TDO2.
Target sequence in this assay (P14902 whole entry): as the sequence (P14902 whole entry, species assumed) above

block of tryptophan degradation and kynurenin production by TDO-expressing cells (human TDO2)	inhibition of tryptophan-degrading activity (kynurenine production) [2]	block of tryptophan degradation and kynurenin production by IDO-expressing cells (IDO [3])	Compound	IC50 (IDO [1])
–	–	–	C(=C\c1c[nH]c2ccccc12)/c1ccncc1 [540C91, (E)-3-[2-(4′-pyridyl)-vinyl]-1H-indole]	1150 µM
efficiently blocked	50%	failed to block	Fc1ccc2c(/C=C/c3cccnc3)c[nH]c2c1 [680C91, (E)-6-fluoro-3-[2-(3-pyridyl)vinyl]-1H-indole]	–
